# Results published in ChEMBL document CHEMBL5608235, “Tricyclic Benzo[1,3]oxazinyloxazolidinones as Potent Antibacterial Agents against Drug-Resistant Pathogens” (J Med Chem, 2024).
# Activity calls are given as the source filed them. The calls are words filed in the database; no cut-off is given here.
# Assays:
# [1] = tested on: Mycobacterium tuberculosis; test: Antibacterial activity against Mycobacterium tuberculosis H37Rv assessed as inhibition of bacterial growth incubated for 7 days by alamar blue assay; format: functional; settings: 168 h, time 7 day
# Enterococcus faecalis = test: Antibacterial activity against Enterococcus faecalis ATCC29212 assessed as inhibition of bacterial growth incubated for 18 hrs by microdilution broth assay; format: functional
# Bacillus subtilis = test: Antibacterial activity against Bacillus subtilis ATCC6633 assessed as inhibition of bacterial growth incubated for 18 hrs by microdilution broth assay; format: functional
# [2] = tested on: Staphylococcus epidermidis; test: Antibacterial activity against Staphylococcus epidermidis ATCC12228 assessed as inhibition of bacterial growth incubated for 18 hrs by microdilution broth assay; format: functional
# [3] = Cytotoxicity against African green monkey Vero cells incubated for 48 hrs by MTT assay; format: toxicity, cell-based, Chlorocebus sabaeus
# Staphylococcus aureus [4] = test: Antibacterial activity against methicillin resistant Staphylococcus aureus clinical isolate 20-1 assessed as inhibition of bacterial growth incubated for 7 days by alamar blue assay; format: functional; settings: clinical isolate 20-1, 168 h, time 7 day
# Staphylococcus aureus [5] = test: Antibacterial activity against methicillin resistant Staphylococcus aureus clinical isolate 20-2 assessed as inhibition of bacterial growth incubated for 7 days by alamar blue assay; format: functional; settings: clinical isolate 20-2, 168 h, time 7 day
# [6] = tested on: Staphylococcus epidermidis; test: Antibacterial activity against methicillin resistant Staphylococcus epidermidis clinical isolate 20-1 assessed as inhibition of bacterial growth incubated for 7 days by alamar blue assay; format: functional; settings: clinical isolate 20-1, 168 h, time 7 day
# [7] = tested on: Staphylococcus epidermidis; test: Antibacterial activity against methicillin resistant Staphylococcus epidermidis clinical isolate 20-2 assessed as inhibition of bacterial growth incubated for 7 days by alamar blue assay; format: functional; settings: clinical isolate 20-2, 168 h, time 7 day
# Staphylococcus aureus [8] = test: Antibacterial activity against vancomycin intermediate Staphylococcus aureus ATCC700699 assessed as inhibition of bacterial growth incubated for 7 days by alamar blue assay; format: functional; settings: ATCC700699, 168 h, time 7 day
# Enterococcus = test: Antibacterial activity against vancomycin resistant Enterococcus clinical isolate 20-1 assessed as inhibition of bacterial growth incubated for 7 days by alamar blue assay; format: functional; settings: clinical isolate 20-1, 168 h, time 7 day
# Staphylococcus aureus [9] = test: Antibacterial activity against Linezolid resistant Staphylococcus aureus clinical isolate 20-1 assessed as inhibition of bacterial growth incubated for 7 days by alamar blue assay; format: functional; settings: clinical isolate 20-1, 168 h, time 7 day
# Staphylococcus aureus [10] = test: Antibacterial activity against Linezolid resistant Staphylococcus aureus clinical isolate 20-2 assessed as inhibition of bacterial growth incubated for 7 days by alamar blue assay; format: functional; settings: clinical isolate 20-2, 168 h, time 7 day
# Staphylococcus aureus [11] = test: Antibacterial activity against Linezolid resistant Staphylococcus aureus assessed as inhibition of bacterial growth incubated for 7 days by alamar blue assay; format: functional; settings: 168 h, time 7 day
# Staphylococcus aureus [12] = test: Inhibition of protein synthesis in Staphylococcus aureus ATCC 29213 by translation assay; format: functional, organism-based
# Staphylococcus aureus [13] = test: (§1) Antibacterial activity against methicillin resistant Staphylococcus aureus ATCC 33592 infected in cyclophosphamide-induced immunosuppressed Kunming mouse assessed as increase in body weight at 50 mg/kg,po administration measured for 7 days; format: functional, organism-based; settings: time 7.0 day
# Staphylococcus aureus [14] = test: as §1, with “reduction” for “increase”, “histopathological change in heart” for “body weight”, “after 24 hrs by hematoxylin and eosin staining based microscopy” for “for 7 days”; format: functional, organism-based
# Staphylococcus aureus [15] = test: (§2) Antibacterial activity against methicillin resistant Staphylococcus aureus ATCC 33592 infected in cyclophosphamide-induced immunosuppressed Kunming mouse assessed as reduction in inflammatory cell infiltration in liver at 50 mg/kg,po administration measured after 24 hrs by hematoxylin and eosin staining based microscopy; format: functional, organism-based
# Staphylococcus aureus [16] = test: as §2, with “kidney” for “liver”; format: functional, organism-based
# Staphylococcus aureus [17] = test: as §2, with “histopathological change” for “inflammatory cell infiltration”, “spleen” for “liver”; format: functional, organism-based
# Staphylococcus aureus [18] = test: as §2, with “congestion” for “inflammatory cell infiltration”, “spleen” for “liver”; format: functional, organism-based
# Staphylococcus aureus [19] = test: as §2, with “pigment deposition” for “inflammatory cell infiltration”, “spleen” for “liver”; format: functional, organism-based
# Cell membrane [20] = test: Disruption of cell membrane in methicillin resistant Staphylococcus aureus ATCC 33592 assessed as cell surface perforation at 1 ug/ml incubated for 6 hrs by Scanning electron microscopic analysis; format: cell membranes; settings: dose 1.0 µg/ml
# Cell membrane [21] = test: Disruption of cell membrane in methicillin resistant Staphylococcus aureus ATCC 33592 assessed as cell shrinkage at 1 ug/ml incubated for 6 hrs by Scanning electron microscopic analysis; format: cell membranes; settings: dose 1.0 µg/ml
# Staphylococcus aureus [22] = test: Inhibition of biofilm formation in methicillin resistant Staphylococcus aureus ATCC 33592 at 0.1 to 10 ug/ml incubated for 48 hrs by crystal violet staining based assay; format: functional, organism-based; settings: dose 0.1-10 µg/ml
# Staphylococcus aureus [23] = test: Inhibition of biofilm formation in Staphylococcus aureus ATCC 29213 at 10 ug/ml incubated for 48 hrs by crystal violet staining based assay; format: functional, organism-based; settings: dose 10.0 µg/ml
# [24] = Free AUC in BALB/c mouse at 10 mg/kg,po administration measured upto 24 hrs by LC-MS/MS analysis; format: ADME, organism-based; settings: in vivo
compound,measurement,setting,value
CC(=O)NC[C@H]1CN(c2ccc(N3CCOCC3)c(F)c2)C(=O)O1 [LINEZOLID],MIC,[1],0.8 µg/mL
same,MIC,Enterococcus faecalis,0.5 µg/mL
same,MIC,Bacillus subtilis,> 64 µg/mL
same,MIC,[2],2 µg/mL
same,IC50 at 48 h,[3],> 64 µg/mL
same,MIC,Staphylococcus aureus [4],1 µg/mL
same,MIC,Staphylococcus aureus [5],1 µg/mL
same,MIC,[6],0.5 µg/mL
same,MIC,[7],0.5 µg/mL
same,MIC,Staphylococcus aureus [8],1 µg/mL
same,MIC,Enterococcus,2 µg/mL
same,MIC,Staphylococcus aureus [9],8 µg/mL
same,MIC,Staphylococcus aureus [10],8 µg/mL
same,MIC,Staphylococcus aureus [11],8 µg/mL
same,IC50,Staphylococcus aureus [12],1.1 µg/mL
same,Activity,Staphylococcus aureus [13],Active
same,Activity,Staphylococcus aureus [14],Active
same,Activity,Staphylococcus aureus [15],Active
same,Activity,Staphylococcus aureus [16],Active
same,Activity,Staphylococcus aureus [17],Active
same,Activity,Staphylococcus aureus [18],Active
same,Activity,Staphylococcus aureus [19],Active
same,Activity,Cell membrane [20],Active
same,Activity,Cell membrane [21],Active
same,inhibition,Staphylococcus aureus [22],Active
same,inhibition,Staphylococcus aureus [23],Active
same,fAUC,[24],5260 ng·h/mL
